# Results published in US20220296669A1, “NOVEL COMPOSITIONS AND USES THEREOF” (priority 2019, published 2022).
# Key:
# [1] = tested on: collagen I scaffolds; test: 131-iodine coating efficiency (binding) assay on collagen I scaffolds with/without PLL precoating; conditions: with PLL as intermediate layer vs without PLL / controls, 1 mm thin and 2 mm thick scaffolds
# Method: Materials—MDS Collagen was obtained from MedSkin Solutions Dr. Suwelack A G (MDS). 1 mm thickness refers to thin, and 2 mm thickness refers to thick collagen scaffold, respectively. c-poly-L-lysine hydrobromide (PLL, 30 000-150 000 g/mol) was purchased from Sigma-Aldrich, St. Louis, USA. Collagen VI and its derived peptides were prepared as described in [18]. LL-37 was a kind gift of Dr. Artur Schmidtchen, University of Lund. NAT26, HKH20, GGL27 were kind gifts of Dr. Inga-Maria Frick, University of Lund. α defensins 3-6 and β defensins 1-4 were kind gifts of Dr. Arne Egesten, University of Lund. Proteins were radiolabeled with 131-iodine according to standard protocols prior to coating assays on collagen scaffold surfaces.
# Biomaterial surface coating with PLL—collagen scaffold discs with a diameter of 5 mm and thickness of 2 mm (thick scaffold) and 1 mm (thin scaffold), respectively, were punched out from a larger sheet (approximately 10 cm×10 cm). Prior to collagen coating, 150 μl poly-L-lysine hydrobromide solution (0.2 mg/ml) were applied on the collagen scaffold discs by incubation at 60° C. for 2 h. Afterwards the discs were washed twice in distilled water to remove unbound PLL, air-dried and stored at room temperature.
# (§1) Biomaterial surface coating with bioactive collagen VI molecules—collagen scaffold discs, after prior treatment with PLL, were put into 24-well cell culture plates (TPP, Trasadingen, Switzerland). They were coated by incubation with 150 μl bovine collagen VI microfibrils (concentration 15 μM), or with 150 μl collagen type VI peptides (concentration 3 μM), or with 150 ml LL-37, NAT26, HKH20, GGL27, α defensins 3-6 and β defensins 1-4 at 4° C. for 2 h, followed by rinsing with distilled water and air-drying. The coating efficiencies of the different biomolecules were assessed by determining the ratio between bound and free 131-iodine radioactivity associated with collagen scaffolds by determining radioactivity as cpm values in a γ-counter.
# [2] = tested on: Human Dermal Fibroblasts, adult (HDFa); test: Fibroblast adherence on coated surfaces, scanning electron microscopy; assay type: cell-based; conditions: with PLL as intermediate layer vs without PLL and other parts of collagen VI, measured in cells/mm^2; for fibroblast adherence on collagen I scaffolds: FIG. 11; for fibroblast adherence on titanium surfaces: titanium surface, FIG. 7
# Method: (§2) Collagen I scaffolds and titanium surfaces were coated with collagen VI microfibrils, each of collagen VI alpha 1-3 chains and the bioactive collagen VI peptides GVR28, FYL25, FFL25, VTT30, and SFV33 as described in Examples 1 and 2 above.
# (§3) Adherence of fibroblasts or keratinocytes was assessed by scanning electron microscopy.
# (§4) Cells and culture conditions—Keratinocytes (Human Epidermal Keratinocytes, adult (HEKa), C-005-5C, Gibco) and fibroblasts (Human Dermal Fibroblasts, adult (HDFa), C0135C, Gibco) were purchased from Thermo Fisher Scientific, Waltham, USA. Cryopreserved cells were thawed according to the manufacturer's protocol and seeded on three 75 mL tissue culture flasks, each containing 15 mL of keratinocyte basal medium (KBM; KBM Gold, Lonza Group AG, Basel, Switzerland). The medium was supplemented with transferrin, recombinant human epidermal growth factor (rhEGF), bovine pituitary extract (BPE), antibiotics (Gentamycin: GA-1000), insulin, epinephrine and hydrocortisone (PeproTech, New Jersey, USA). For fibroblasts, complete growth medium consisting of Dulbecco's modified eagle medium (D-MEM) with 100 mM sodium pyruvate (PAA Laboratories, Pasching, Austria), supplemented with 10% fetal bovine serum (FBS) (PAA Laboratories, Pasching, Austria) and 2 mM L-glutamine (Invitrogen, Carlsbad, USA), was used. Medium was changed every day and substituted with additional rhEGF at a final dilution of 1:1000. The cells were incubated for seven days until they reached confluency. The cells were harvested by trypsinization (TrypLE™ Select (1x), Life Technologies Corporation, Carlsbad, USA) and transferred into freezing medium, containing 1% BSA (Sigma Aldrich, St. Louis, USA) and 10% DMSO (Sigma-Aldrich, St. Louis, USA). 1 mL aliquots of the cell suspension were transferred into cryotubes. The cryotubes were transferred to the freezer at −80° C. for 24 hours and then finally stored in liquid nitrogen until further use.
# (§5) Cell attachment—Cells were gently thawed and counted in a hemocytometer using trypan blue (Fisher Scientific, Waltham, USA) to estimate the number of live/dead cells. They were finally diluted in appropriate media to final cell concentrations of 16700 viable cells/mL. 300 μL cell solution were added on top of punched out titanium or collagen I scaffold samples, followed by incubation at 37° C. for 1 hour. Growth medium was removed and the cells were gently washed twice with PBS. The cells were then fixed by the addition of 4% formaldehyde in PBS, followed by incubation at 4° C. for 20 minutes. Finally, cells were rinsed three times in PBS and stored in 3 mL PBS until further evaluation by scanning electron microscopy.
# [3] = tested on: Human Epidermal Keratinocytes, adult (HEKa); test: Keratinocyte adherence on coated surfaces, scanning electron microscopy; assay type: cell-based; conditions: with PLL as intermediate layer vs without PLL and other parts of collagen VI; for keratinocyte adherence on collagen I scaffolds: FIG. 12; for keratinocyte adherence on titanium surfaces: titanium surface, FIG. 8
# Method: as §2, §3, §4, §5
# [4] = 131-iodine coating efficiency (binding) assay on titanium surfaces with/without PLL precoating; conditions: with PLL as intermediate layer vs without PLL / controls
# Method: Materials—Titanium discs with a diameter and thickness of 5 mm and 0.25 mm, respectively, and with a maximum average roughness (Ra) of 0.8 μm, were punched out from a commercially available titanium foil (Alfa Aesar GmbH & Co. KG, Karlsruhe, Germany). ε-poly-L-lysine hydrobromide (PLL, 30,000-150,000 g/mol) was purchased from Sigma-Aldrich, St. Louis, USA. Collagen VI and its derived peptides were prepared as described in [18]. LL-37 was a kind gift of Dr. Artur Schmidtchen, University of Lund. NAT26, HKH20, GGL27 were kind gifts of Dr. Inga-Maria Frick, University of Lund. α defensins 3-6 and β defensins 1-4 were kind gifts of Dr. Arne Egesten, University of Lund. Proteins were radiolabeled with 131-iodine according to standard protocols prior to coating assays on collagen scaffold surfaces.
# Biomaterial surface coating with PLL—Titanium discs were degreased with chloroform and 97% ethanol, followed by rinsing with distilled water, and air-drying at room temperature. Subsequently, prior to collagen coating, 150 μl poly-L-lysine hydrobromide (70,000-150,000 g/mol, Sigma-Aldrich, St. Louis, USA, 0.2 mg/ml) were applied on desired titanium discs by incubation at 60° C. for 2 hours. Afterwards, the titanium was washed twice in distilled water to remove unbound PLL, air-dried and stored at room temperature.
# as §1, with “molecules—Titanium” for “molecules—collagen scaffold”, “μl” for “μl bovine collagen VI microfibrils (concentration 15 μM), or with 150 μl”, “μM),” for “μM), or with 150 ml LL-37, NAT26, HKH20, GGL27, α defensins 3-6 and β defensins 1-4”, “hours,” for “h,”, “titanium discs” for “collagen scaffolds”
# [5] = tested on: Staphylococcus aureus; test: Gram-positive bacterial killing efficiency on coated surfaces, scanning electron microscopy; assay type: cell-based; conditions: with PLL as intermediate layer vs without PLL and other parts of collagen VI; for killing of Staphylococcus aureus on collagen I scaffolds: collagen I scaffolds 1 mm / 2 mm, FIG. 10; for killing of Staphylococcus aureus on titanium surfaces: titanium surface, FIG. 6
# Method: (§6) Collagen I scaffolds and titanium surfaces were coated with collagen VI microfibrils, each of collagen VI alpha 1-3 chains and the bioactive collagen VI peptides GVR28, FYL25, FFL25, VTT30, and SFV33 as described in Examples 1 and 2 above, respectively.
# (§7) Killing efficiency of the gram-negative Pseudomonas aeruginosa bacteria and the gram-positive Staphylococcus aureus were assessed by scanning electron microscopy. For killing efficiency and scanning electron microscopy experiments, titanium scaffold discs with a size of 5 mm and a thickness of 0.25 mm, and collagen I scaffold discs with a size of 5 mm and a thickness of 1 mm (thin scaffold) or 2 mm (thick scaffold), respectively, were punched out and coated with PLL as described in Examples 1 and 2 above. They were subsequently incubated with 500 μL of bacterial suspension (5×10^8 cfu/ml bacteria) and incubated for 2 hours at 37° C. in a humid atmosphere containing 5% CO2.
# (§8) The discs were then prepared for scanning electron microscopy. In short, samples were incubated overnight at 4° C. with fixation buffer (0.15M sodium cacodylate, pH 7.4, containing 2.5% v/v glutaraldehyde) and subsequently washed with cacodylate buffer (0.15M sodium cacodylate, pH 7.4), followed by a standard dehydration series with ethanol-water mixtures. Specimens were then dried in liquid CO2, using ethanol as an intermediate solvent. Samples were mounted on aluminium discs and coated with 20 nm gold/palladium. Finally, samples were investigated with an XL 30 FEG scanning electron microscope and images were processed by AnalySIS ITEM software. Viable and non-viable bacteria were directly identified and quantified under in the scanning electron microscope due to their structural differences.
# [6] = tested on: Pseudomonas aeruginosa; test: Gram-negative bacterial killing efficiency on coated surfaces, scanning electron microscopy; assay type: cell-based; conditions: with PLL as intermediate layer vs without PLL and other parts of collagen VI; for killing of Pseudomonas aeruginosa on collagen I scaffolds: collagen I scaffolds 1 mm / 2 mm, FIG. 9; for killing of Pseudomonas aeruginosa on titanium surfaces: titanium surface, FIG. 5
# Method: as §6, §7, §8
# [7] = listed as collagen type VI alpha-3 chain
substance,measurement,setting,value
FFLKDFSTKRQIIDAINKVVYKGGR (FFL25 peptide),coating efficiency (binding) on collagen I scaffolds,[1],superior coating
same,fibroblast adherence on collagen I scaffolds,[2],considerably enhanced
same,fibroblast adherence on titanium surfaces,[2],considerably enhanced
same,keratinocyte adherence on collagen I scaffolds,[3],considerably enhanced
same,keratinocyte adherence on titanium surfaces,[3],considerably enhanced
same,coating efficiency (binding) on titanium surfaces,[4],superior coating
FYLKTYRSQAPVLDAIRRLRLRGGS (FYL25 peptide),coating efficiency (binding) on collagen I scaffolds,[1],superior coating
same,coating efficiency (binding) on titanium surfaces,[4],superior coating
GVRPDGFAHIRDFVSRIVRRLNIGPSKV (GVR28 peptide),coating efficiency (binding) on collagen I scaffolds,[1],superior coating
same,fibroblast adherence on collagen I scaffolds,[2],considerably enhanced
same,fibroblast adherence on titanium surfaces,[2],considerably enhanced
same,keratinocyte adherence on collagen I scaffolds,[3],considerably enhanced
same,keratinocyte adherence on titanium surfaces,[3],considerably enhanced
same,coating efficiency (binding) on titanium surfaces,[4],superior coating
SFVARNTFKRVRNGFLMRKVAVFFSNTPTRASP (SFV33 peptide),coating efficiency (binding) on collagen I scaffolds,[1],superior coating
same,killing of Staphylococcus aureus on collagen I scaffolds,[5],considerably enhanced
same,killing of Staphylococcus aureus on titanium surfaces,[5],considerably enhanced
same,killing of Pseudomonas aeruginosa on collagen I scaffolds,[6],considerably enhanced
same,killing of Pseudomonas aeruginosa on titanium surfaces,[6],considerably enhanced
same,coating efficiency (binding) on titanium surfaces,[4],superior coating
VTTEIRFADSKRKSVLLDKIKNLQVALTSK (VTT30 peptide),coating efficiency (binding) on collagen I scaffolds,[1],superior coating
same,fibroblast adherence on collagen I scaffolds,[2],considerably enhanced
same,fibroblast adherence on titanium surfaces,[2],considerably enhanced
same,keratinocyte adherence on collagen I scaffolds,[3],considerably enhanced
same,keratinocyte adherence on titanium surfaces,[3],considerably enhanced
same,coating efficiency (binding) on titanium surfaces,[4],superior coating
collagen VI alpha-3 chain: alpha-3 polypeptide chain of collagen type VI (UniProt P12111),coating efficiency (binding) on collagen I scaffolds,[1],considerably enhanced
same,coating efficiency (binding) on collagen I scaffolds,[1]; [7],superior coating
same,fibroblast adherence on collagen I scaffolds,[2],considerably enhanced
same,fibroblast adherence on titanium surfaces,[2],considerably enhanced
same,killing of Staphylococcus aureus on collagen I scaffolds,[5],considerably enhanced
same,killing of Staphylococcus aureus on titanium surfaces,[5],considerably enhanced
same,killing of Pseudomonas aeruginosa on collagen I scaffolds,[6],considerably enhanced
same,killing of Pseudomonas aeruginosa on titanium surfaces,[6],considerably enhanced
same,keratinocyte adherence on collagen I scaffolds,[3],considerably enhanced
same,keratinocyte adherence on titanium surfaces,[3],considerably enhanced
same,coating efficiency (binding) on titanium surfaces,[4],considerably enhanced
same,coating efficiency (binding) on titanium surfaces,[4]; [7],superior coating
